What was measured:
Experiment in all cases: IC50 (cell viability) (log10 M)
Settings in all cases: 4 days
EOL-1 = test system: EOL-1
Summary of the method: (§1)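 The IC50 entries come from fitted dose-response curves. Each value is the concentration in log10 M where a fitted four-parameter curve reaches 50% viability, and the highest tested concentration is entered when that level is not reached. Fourteen leukemia cell lines on extracellular-matrix-coated 384-well plates received drugs in duplicate at eight concentrations within 10^–12–10^–4 M, and viability was read with CellTiter-Glo after 4 days.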

HL60 = test system: HL60
Summary of the method: as §1

KASUMI1 = test system: KASUMI1
Summary of the method: as §1

KG1 = test system: KG1
Summary of the method: as §1

MOLM/13 = test system: MOLM/13
Summary of the method: as §1

MOLM/16 = test system: MOLM/16
Summary of the method: as §1

MV4.11 = test system: MV4.11
Summary of the method: as §1

OCI-AML2 = test system: OCI-AML2
Summary of the method: as §1

SKM1 = test system: SKM1
Summary of the method: as §1

U937 = test system: U937
Summary of the method: as §1

IC50 (log10 M) (HL60) | IC50 (log10 M) (MOLM/13) | IC50 (log10 M) (MOLM/16) | IC50 (log10 M) (MV4.11) | IC50 (log10 M) (OCI-AML2) | IC50 (log10 M) (SKM1) | IC50 (log10 M) (U937) | SMILES | IC50 (log10 M) (EOL-1) | IC50 (log10 M) (KASUMI1) | IC50 (log10 M) (KG1)
-5.13 | -6.46 | -5.87 | -6.42 | -6.91 | -6.36 | -6.88 | CC(=O)c1c(C)c2cnc(Nc3ccc(N4CCNCC4)cn3)nc2n(C2CCCC2)c1=O | -6.53 | -5.47 | -5.08
-6.01 | -7.75 |  | -7.67 |  | -7.49 |  | CC(C)CC(=O)Nc1n[nH]c2c1CN(C(=O)C1CCN(C)CC1)C2(C)C | -7.54 | -6.34 | -5.76
> -5 | > -5 | > -5 | > -5 | > -5 | > -5 | > -5 | CN1CC[C@@H](NC(=O)Nc2ccc(C#N)cc2)C[C@@H]1c1nc2ccccc2[nH]1 | > -5 | > -5 | > -5
-6.45 | -6.61 | -7.12 | -6.94 | -6.58 | -6.77 | -6.9 | COc1ccc(-c2cc3c(C)nc(N)nc3n([C@H]3CC[C@H](OCCO)CC3)c2=O)cn1 | -7.09 | -6.97 | -6.3
-6.4 | > -5 | > -5 | -5.56 | > -5 | -5.73 | -5.89 | COc1ccc2c(c1)CCC1C2CCC2(C)C(NCCCCCCN3C(=O)C=CC3=O)CCC12 (stereo not given) | -6.09 | -6.38 | -5.95
-5.83 | -6.89 | -6.74 | -7.28 | -6.08 | -5.97 | -5.78 | Cc1cnc(Nc2ccc(OCCN3CCCC3)cc2)nc1Nc1cccc(S(=O)(=O)NC(C)(C)C)c1 | -7.2 | -6.25 | -6.17
> -5 | > -5 | > -5 | > -5 | > -5 | > -5 | > -5 | NC(=O)c1ccc(-c2nc(-c3ccccn3)c(-c3ccc4c(c3)OCO4)[nH]2)cc1 | -5.08 | > -5 | > -5
< -8.48 | -5.76 | -6.62 | -6.87 | < -8.48 | < -8.48 | -5.51 | O=C(NC[C@H](O)CO)c1ccncc1Nc1ccc(I)cc1F | -7.52 | -7.59 | -7.51
< -8.34 | -6.01 | -6.6 | -7.47 | < -8.34 | < -8.34 | -5.32 | O=C(NOC[C@H](O)CO)c1ccc(F)c(F)c1Nc1ccc(I)cc1F | -7.9 | -7.93 | -7.31
> -5 | > -5 | > -5 | > -5 | > -5 | > -5 | > -5 | O=C1NC(=O)/C(=C\c2ccc3nccnc3c2)S1 | > -5 | > -5 | > -5
> -5 | > -5 | > -5 | > -5 | > -5 | > -5 | > -5 | OCCn1cc(-c2cnc3nnn(Cc4ccc5ncccc5c4)c3n2)cn1 | > -5 | > -5 | > -5
-6.11 | -6.69 | -6.88 | -8.32 | -5.94 | -5.99 | -6.12 | Nc1ncnc2c1c(I)cn2[C@@H]1O[C@H](CO)[C@@H](O)[C@H]1O [5-Iodotubercidin] | -6.7 | -6.1 | -6.38
-6.22 | -6.38 | -6.12 | -6.49 | -6.42 | > -5.96 | > -5.96 | CC1(C)CCC(c2ccc(Cl)cc2)=C(CN2CCN(c3ccc(C(=O)NS(=O)(=O)c4ccc(N[C@H](CCN5CCOCC5)CSc5ccccc5)c(S(=O)(=O)C(F)(F)F)c4)cc3)CC2)C1 [ABT-263] | -6.54 | -6.42 | -6.31
-6.57 | -6.96 | -6.37 | -6.96 | -6.9 | -6.99 | -7.21 | O=C(NC1CCNCC1)c1n[nH]cc1NC(=O)c1c(Cl)cccc1Cl [AT-7519] | -7.28 | -6.54 | -6.08
> -5 | -5.23 | -5.32 | -5.33 | > -5 | > -5 | > -5 | CN1CCN(CCOc2cc(OC3CCOCC3)c3c(Nc4c(Cl)ccc5c4OCO5)ncnc3c2)CC1 [AZD0530] | -5.77 | > -5 | > -5
> -5 | > -5 | > -5 | > -5 | > -5 | > -5 | > -5 | COc1cc2c(Oc3ccc4[nH]c(C)cc4c3F)ncnc2cc1OCCCN1CCCC1 [AZD2171] | -6.47 | > -5 | 
-6.87 | < -8.48 | -7.3 | < -8.48 | -7.93 |  | -7.84 | NC(=O)Nc1cc(-c2cccc(F)c2)sc1C(=O)N[C@H]1CCCNC1 [AZD7762] | < -8.48 | -7.28 | -6.83
-8.31 | -7.02 | > -5 | -8.16 | < -8.34 | < -8.34 | > -5 | Cc1cc(C(=O)NOCCO)c(Nc2ccc(I)cc2F)n(C)c1=O [AZD8330] | < -8.34 | -8.22 | < -8.34
-6.75 | > -5 | > -5 | -5.4 | -7.65 | -7.45 | > -5 | Cn1cnc2c(F)c(Nc3ccc(Br)cc3Cl)c(C(=O)NOCCO)cc21 [AZD-6244] | -6.11 | > -5 | -5.45

SMILES | IC50 (log10 M) (HL60) | IC50 (log10 M) (MOLM/13) | IC50 (log10 M) (MOLM/16) | IC50 (log10 M) (MV4.11) | IC50 (log10 M) (OCI-AML2) | IC50 (log10 M) (SKM1) | IC50 (log10 M) (U937) | IC50 (log10 M) (EOL-1) | IC50 (log10 M) (KASUMI1) | IC50 (log10 M) (KG1)
O=C1NC(=O)c2c1c1c3ccccc3n3c1c1c2c2ccccc2n1[C@H]1CC[C@@H]3O1 | > -6 | > -6 | -6.46 | > -6 | > -6 | > -6 | > -6 | -6.45 | > -6 | > -6
Cl[TeH]1(Cl)(Cl)OCCO1.N [AS101] | > -5 | -5.07 | > -5 | -5.19 | > -5 | > -5 | > -5 | > -5 | > -5 | > -5

Reference: the supplement of paper PMC5752671
